In ChEMBL document CHEMBL1156607, “A new multi-gram synthetic route to labeling precursors for the D(2/3) PET agent 18F-fallypride” (Bioorg Med Chem Lett, 2008):

Molecular target: D(2) dopamine receptor (Homo sapiens, UniProt P14416)
Experiment: Antagonist activity at dopamine D2 receptor
Type: functional

Sequence of D(2) dopamine receptor (P14416 whole entry): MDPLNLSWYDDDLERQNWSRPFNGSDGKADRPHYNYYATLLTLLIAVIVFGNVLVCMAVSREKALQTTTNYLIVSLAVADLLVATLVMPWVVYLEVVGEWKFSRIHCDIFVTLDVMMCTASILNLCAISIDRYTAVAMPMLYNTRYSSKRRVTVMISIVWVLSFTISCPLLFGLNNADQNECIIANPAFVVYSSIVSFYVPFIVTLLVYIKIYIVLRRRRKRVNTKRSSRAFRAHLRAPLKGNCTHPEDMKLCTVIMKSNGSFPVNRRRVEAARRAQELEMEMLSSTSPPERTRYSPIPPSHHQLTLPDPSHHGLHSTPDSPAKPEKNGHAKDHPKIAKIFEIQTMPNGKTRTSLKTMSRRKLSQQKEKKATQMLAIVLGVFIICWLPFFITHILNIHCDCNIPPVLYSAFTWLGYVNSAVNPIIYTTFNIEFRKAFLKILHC

IC50 [nM]	SMILES
17.1	C=CCN1CCC[C@H]1CNC(=O)c1cc(CCCCl)cc(OC)c1OC
5	C=CCN1CCC[C@H]1CNC(=O)c1cc(CCCF)cc(OC)c1OC [FALLYPRIDE]
